Assay results from ChEMBL document CHEMBL4028808, “Design and synthesis of selective CDK8/19 dual inhibitors: Discovery of 4,5-dihydrothieno[3',4':3,4]benzo[1,2-d]isothiazole derivatives” (Bioorg Med Chem, 2017).
Activity calls are given as the source filed them. The rule behind the calls is not given here.

Key:
[1] = Intrinsic clearance in human liver microsomes at 1 umol/l after 15 to 30 mins in presence of NADPH by LC-MS/MS analysis; type: ADME, microsome; details: read-out: CLH
[2] = target: Vascular endothelial growth factor receptor 2 (Homo sapiens) (UniProt P35968); test: Inhibition of VEGFR2 (unknown origin) at <1 uM using biotinylated poly[Glu:Tyr] (4:1) as substrate pretreated for 5 mins followed by substrate addition measured after 10 mins by Alphascreen assay
[3] = target: Cyclin-dependent kinase 9 (Homo sapiens, UniProt P50750); test: Inhibition of CDK9 (unknown origin)
[4] = target: Serine/threonine-protein kinase PLK1 (Homo sapiens) (UniProt P53350); test: Inhibition of PLK1 (unknown origin) at 1 uM using alpha-casein as substrate preincubated for 5 mins followed by substrate addition measured after 60 mins in presence of [gamma33P]ATP by scintillation counter method relative to control
Mus musculus = test: AUC (0 to 24 hrs) in ICR mouse plasma at 0.1 mg/kg, iv administered as cassette dose by LC-MS/MS analysis; type: ADME, organism-based; set-up: dose 0.1 mg/kg, time < 24 hr, route intravenous; details: in vivo

Vascular endothelial growth factor receptor 2 (Homo sapiens), sequence (P35968 whole entry): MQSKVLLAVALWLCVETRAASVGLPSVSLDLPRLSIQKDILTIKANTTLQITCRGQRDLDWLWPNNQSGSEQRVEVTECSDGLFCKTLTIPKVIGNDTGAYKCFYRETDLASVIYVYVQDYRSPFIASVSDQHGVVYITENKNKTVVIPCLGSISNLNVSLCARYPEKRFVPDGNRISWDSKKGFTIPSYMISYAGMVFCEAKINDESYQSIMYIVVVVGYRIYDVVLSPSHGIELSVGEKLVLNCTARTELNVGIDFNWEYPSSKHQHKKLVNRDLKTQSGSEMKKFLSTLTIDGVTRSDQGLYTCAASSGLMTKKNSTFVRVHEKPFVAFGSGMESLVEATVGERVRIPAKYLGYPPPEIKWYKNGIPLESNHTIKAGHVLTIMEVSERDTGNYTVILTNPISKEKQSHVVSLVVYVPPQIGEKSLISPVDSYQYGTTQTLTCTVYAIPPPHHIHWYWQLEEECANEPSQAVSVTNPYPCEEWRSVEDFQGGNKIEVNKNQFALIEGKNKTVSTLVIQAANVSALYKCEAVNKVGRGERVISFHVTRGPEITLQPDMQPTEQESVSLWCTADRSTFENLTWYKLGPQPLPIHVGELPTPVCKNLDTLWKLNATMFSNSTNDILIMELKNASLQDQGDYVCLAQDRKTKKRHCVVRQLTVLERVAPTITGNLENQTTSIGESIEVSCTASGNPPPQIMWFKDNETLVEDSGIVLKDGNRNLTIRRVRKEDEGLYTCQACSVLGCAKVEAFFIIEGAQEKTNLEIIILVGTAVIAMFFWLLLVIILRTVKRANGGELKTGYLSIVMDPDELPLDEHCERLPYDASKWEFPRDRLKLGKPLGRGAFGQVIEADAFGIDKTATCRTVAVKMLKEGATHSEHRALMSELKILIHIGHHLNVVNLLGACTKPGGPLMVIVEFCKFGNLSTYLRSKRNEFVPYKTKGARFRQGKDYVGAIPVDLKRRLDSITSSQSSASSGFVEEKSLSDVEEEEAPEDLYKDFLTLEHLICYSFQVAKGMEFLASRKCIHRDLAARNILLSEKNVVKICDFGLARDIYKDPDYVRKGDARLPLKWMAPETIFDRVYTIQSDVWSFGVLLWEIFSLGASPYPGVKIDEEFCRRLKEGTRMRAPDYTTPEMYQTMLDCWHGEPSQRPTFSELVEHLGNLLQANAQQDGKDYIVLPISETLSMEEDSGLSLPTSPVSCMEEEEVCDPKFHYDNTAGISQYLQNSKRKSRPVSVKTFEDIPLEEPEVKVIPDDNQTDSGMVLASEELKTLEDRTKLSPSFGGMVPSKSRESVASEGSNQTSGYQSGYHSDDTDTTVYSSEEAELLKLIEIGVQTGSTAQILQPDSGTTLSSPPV
Cyclin-dependent kinase 9, sequence (P50750 whole entry): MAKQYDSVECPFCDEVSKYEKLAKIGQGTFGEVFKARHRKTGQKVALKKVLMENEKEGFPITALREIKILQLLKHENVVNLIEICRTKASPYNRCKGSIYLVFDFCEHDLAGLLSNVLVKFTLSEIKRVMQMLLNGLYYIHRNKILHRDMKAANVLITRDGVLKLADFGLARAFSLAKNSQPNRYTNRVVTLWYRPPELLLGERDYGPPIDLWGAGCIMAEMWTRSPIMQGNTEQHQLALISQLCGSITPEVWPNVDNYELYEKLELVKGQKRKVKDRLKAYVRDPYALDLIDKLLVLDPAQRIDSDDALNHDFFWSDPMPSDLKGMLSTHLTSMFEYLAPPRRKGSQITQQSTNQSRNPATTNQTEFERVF
Serine/threonine-protein kinase PLK1 (Homo sapiens), sequence (P53350 whole entry): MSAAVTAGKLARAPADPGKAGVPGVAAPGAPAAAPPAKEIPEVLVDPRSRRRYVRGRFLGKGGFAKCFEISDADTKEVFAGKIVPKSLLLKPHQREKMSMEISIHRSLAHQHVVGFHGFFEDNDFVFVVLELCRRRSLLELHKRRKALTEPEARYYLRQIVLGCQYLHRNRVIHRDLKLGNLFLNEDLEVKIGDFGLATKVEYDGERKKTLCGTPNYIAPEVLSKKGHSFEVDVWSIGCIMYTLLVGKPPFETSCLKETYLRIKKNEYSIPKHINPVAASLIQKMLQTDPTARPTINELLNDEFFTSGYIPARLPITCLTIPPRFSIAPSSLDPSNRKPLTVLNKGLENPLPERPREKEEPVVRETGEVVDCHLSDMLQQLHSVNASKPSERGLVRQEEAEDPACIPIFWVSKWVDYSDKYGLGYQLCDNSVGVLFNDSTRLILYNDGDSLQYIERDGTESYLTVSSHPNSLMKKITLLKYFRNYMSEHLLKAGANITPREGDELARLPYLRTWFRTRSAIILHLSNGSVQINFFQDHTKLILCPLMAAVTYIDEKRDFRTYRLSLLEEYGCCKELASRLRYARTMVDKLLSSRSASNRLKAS

Question: Which microsomal CLint at 1 µM [1] does the source give for `COCCNC(=O)c1ccc(Oc2sc(C(N)=O)c3c2-c2sncc2CC3)cn1` here?
Answer: 21 µL/min/mg

Question: And the inhibition [2]?
Answer: inactive

Question: What about the IC50 [3] of the same compound?
Answer: 270 nM

Question: What about the inhibition [4] of the same compound?
Answer: 4%

Question: And the AUC (Mus musculus)?
Answer: 90.4 ng·h/mL
